“Also recorded” adds a separate entry of the source.
Tests used:
[1] = test system: nonswarming P. aeruginosa mutant rhlA; assay: Swarming motility of nonswarming rhlA mutant on soft agar (reactivation / agonist assay); format: cell-based, Pseudomonas aeruginosa; settings: 85 μM in soft agar (0.5%), 24 h
Method in brief: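 rhlA transposon mutant of PAO1 (3 μl, OD600 0.4–0.6) inoculated on M8 soft agar (0.2% glucose, 0.5% casamino acids, 1 mM MgSO4, 0.5% agar) with test compound to find swarming agonists. Incubated 12 h at 37 °C plus 12 h at room temperature; swarm area measured by weighing paper cut-outs of imaged swarms.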

wild type PAO1 = assay: Swarming motility of wild type PAO1 on soft agar (antagonist assay); format: cell-based, Pseudomonas aeruginosa; settings: for Swarming motility of wild type PAO1: 85 μM in soft agar, 24 h; for Effect on PAO1 swarming: concentration not given
Method in brief: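 Wild-type PAO1 culture (OD600 ~0.4–0.6, 3 μl) spotted on M8 swarm agar with 0.2% glucose, 0.5% casamino acids, 1 mM MgSO4 and 0.5% agar. Plates incubated 12 h at 37 °C then 12 h at room temperature; swarm area measured by cutting and weighing printed plate images.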

PAO1 biofilm = assay: Crystal violet based static biofilm inhibition assay, DSHs in LB media (Examples 2 and 4); format: cell-based, Pseudomonas aeruginosa; settings: for Inhibition of PAO1 biofilm formation (surface attached): 160 μM, 24 h, LB media; for Anti-biofilm activity (biofilm inhibition): concentration not given
Method in brief: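 PAO1 subculture (OD600 ~0.1) was grown statically in LB at 37° C for 24 h with or without DSHs (screened at 160 μM). Surface-attached biofilm was then stained with 0.1% crystal violet, solubilised in 30% AcOH and read at 600 nm. Values are the mean of 4 wells.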

[2] = test system: planktonic Pseudomonas aeruginosa (PAO1); assay: Planktonic bacterial growth (OD600 growth curve); format: cell-based; settings: 160 μM, LB
Procedure: Antimicrobial activities of disaccharide hydrocarbons against planktonic growth. Overnight inoculum of PAO1 was sub-cultured to an OD600˜0.1 and then aliquoted (200 μL) into the wells of a micro-titer plate and DSHs (˜160 μM) were then added to assigned wells. Wells with no-agents were created as a positive control. The micro-titer plate was then placed in a rotary shaker (250 rpm at 37° C.) and optical density was measured after regular intervals of time using Biotek ELx800 ™ absorbance microplate reader (BioTek Instruments, Inc., Winooski, Vt.) using Gen5™ data analysis software. The OD600 values were taken in sterile conditions over 24 h. The OD600 values were plotted against time to obtain a growth curve for planktonic growth with or without agents.
Optical density was measured using Biotek ELx800 ™ absorbance microplate reader (BioTek Instruments, Inc., Winooski, Vt.) using Gen5™ data analysis software. The OD600 values were taken in sterile conditions at 0, 2, 4, 6, 8, 10, 12, and 24 h after bacterial culture inoculation in 96-well polystyrene plate with and without agents.

PAO1 and rhlA = assay: Bacterial growth on soft agar swarm plate; format: cell-based, Pseudomonas aeruginosa
Procedure: Swarm agar plates were based on M8 medium supplemented with 0.2% glucose, 0.5% casamino acid, 1 mM MgSO4 and […]. 17 For each set of experiment all the swarm plates were poured from same batch of agar and allowed to dry for 1 h before inoculation of bacteria. Bacterial culture (3 μl) (wild type PAO1 or rhlA mutant) with OD600 between […] was inoculated on the solidified agar plates. Swarm agar plates were incubated at 37° C. for 12 h and then incubated for additional 12 h at room temp. Chronological images of swarm plates were taken using a camera. To measure swarming area, sizes of the petridish in all swarming images were adjusted to a pre-assigned diameter and images were printed on copying paper (Xerox-business 4200). Weight of a 1 cm^2 copy paper square was roughly ˜8.0 mg. swarming images on the copy paper were cut and weighed, the swarm area was calculated by dividing the weight of image by weight of 1 cm^2 square (8 mg).

PAO1-EGFP = assay: Fluorescence adhesion assay on polystyrene, DSHs (Examples 2 and 4); format: cell-based, Pseudomonas aeruginosa; settings: 160 μM
Procedure: The ability of DSHs was tested to inhibit Pseudomonas aeruginosa adhesion, biofilm and to disperse pre-formed biofilm. To quantify the amount of PAO1/EGFP attached on the surface of micro titer plates with or without the synthesized DSHs, fluorescence emitted by green fluorescent proteins (GFP) was quantified (see supporting info for details). Crystal violet (CV) based static biofilm assay (see supporting info) was used to screen the anti-biofilm potencies of all synthesized agents. Both surface attached (SA) (FIG. 17) and total (SA+air-liquid interface) biofilm of P. aeruginosa was quantified. […] CV assays were also used to quantify the amount of P. aeruginosa biofilm remaining after dispersion experiments (FIG. 19). Initially, all agents were screen for anti-biofilm activities (both inhibition and dispersion) at 160 μM. […]
The effect that DSHs have on the adhesion of PAO1-EGFP on polystyrene surface (microtiter plate) was also examined. […] After 24-hours, the fluorescent signal obtained from surface adhered PAO1-EGFP was measured. Percent reduction in fluorescence was calculated by comparing fluorescent signal from PAO1-EGFP grown in LB-media with the signal from wells that had DSHs (FIG. 29A). […] After 24 hours, the surface attached biofilms adhering to the bottom of the wells were stained with crystal-violet dye and the biofilm was quantified by measuring absorbance at 600 nm (OD600). […]

1-day old PAO1 biofilm = assay: Crystal violet assay for dispersion of 1-day old biofilm, DSHs (Examples 2 and 4); format: cell-based, Pseudomonas aeruginosa; settings: 160 μM, another 24 h
Procedure: The effect that DSHs have on the adhesion of PAO1-EGFP on polystyrene surface (microtiter plate) was also examined. PAO1-EGFP is a P. aeruginosa strain that constitutively expresses green fluorescent protein. In the adhesion assays, PAO1-EGFP was grown in microtiter plate for 24-hours in LB-media with (160 μM) or without DSHs. After 24-hours, the fluorescent signal obtained from surface adhered PAO1-EGFP was measured. Percent reduction in fluorescence was calculated by comparing fluorescent signal from PAO1-EGFP grown in LB-media with the signal from wells that had DSHs (FIG. 29A). To study the effect of DSHs on biofilm formation, Pseudomonas aeruginosa (PAO1) was grown in LB-media with (160 μM) or without DSHs at 37° C. under static conditions within wells of microtiter plates. After 24 hours, the surface attached biofilms adhering to the bottom of the wells were stained with crystal-violet dye and the biofilm was quantified by measuring absorbance at 600 nm (OD600). The percent inhibition was calculated by comparing biofilm content of wells with no added agents (control) with the biofilm content from wells that had 160 μM of DSHs (FIG. 29A). Similar to inhibition, the surface attached biofilm after dispersion with DSHs was quantified with crystal-violet staining and absorbance measurement at 600 nm, except that for dispersion, biofilm was first grown for 1 day in just LB-media without any DSHs after which DSHs were added and plates were incubated for additional 24 hours followed by quantification (FIG. 29B).
Crystal violet based assay for quantifying dispersion of 1-day old PAO1 biofilms were Plate for set up similar to inhibition assay with a slight modification. Wells of the micro-titer plate was inoculated with (200 μL) bacterial subculture (PAO1 subculture OD600 ˜0.1). The plates were incubated at 37° C. for 24 hours to allow biofilm formation. After 24 hours, bacterial culture was gently pipetted out and appropriate volume of DSH were added followed by addition of fresh LB medium (200 μL). The microtiter plate was incubated for an additional 24 hours at 37° C., following which, similar to work up of inhibition assay, culture was removed, wells were washed and CV-dye was introduced, followed by washing and destaining with 30% AcOH solution in water and quantification at 600 nm. Here again, only the surface attached biofilm dispersed was reported by comparing wells with DSHs with wells with no agent.
Dose dependence assays for biofilm inhibition and dispersion. […] Both for biofilm inhibition and dispersion, predetermined volumes of DSH stocks were added to the assigned wells to span a concentration range between 0.5 μM-170 μM. Percent biofilm inhibition of dispersion was calculated by comparing to wells with no agent. The percent biofilm inhibition or dispersion was plotted versus concentration of DSHs. The linear values were logarithmically curve fitted using equation […]. The half maximal inhibitory concentration for both biofilm inhibition and dispersion (IC50 and DC50) were thus obtained.

Compound | Swarming motility of rhlA mutant [1] | Swarming motility of wild type PAO1 (wild type PAO1) | Effect on PAO1 swarming (wild type PAO1) | Inhibition of PAO1 biofilm formation (surface attached) (PAO1 biofilm; listed as 11: FβC, 160 µM) | Anti-biofilm activity (biofilm inhibition) (PAO1 biofilm) | Inhibition of planktonic growth of Pseudomonas aeruginosa [2] | Bacterial growth on soft-agar plate (PAO1 and rhlA; 160 μM, PAO1 and rhlA) | Bacterial growth on soft agar (~0.5%) plate (PAO1 and rhlA; PAO1, concentration not stated) | Inhibition of PAO1 biofilm formation (surface attached) (PAO1 biofilm) | Inhibition of PAO1 biofilm formation (surface attached) (PAO1 biofilm; listed as 18: DβCDS, 160 µM) | Adhesion inhibition of PAO1-EGFP on polystyrene (PAO1-EGFP) | Dispersion of 24-h old PAO1 biofilm (1-day old PAO1 biofilm)
CC(C)=CCC/C(C)=C/CC/C(C)=C/CO[C@@H]1O[C@H](CO)[C@@H](O[C@@H]2O[C@H](CO)[C@@H](O)[C@H](O)[C@H]2O)[C@H](O)[C@H]1O [FβC (11), farnesyl-β-cellobioside] | weak activation of rhlA swarming motility | weak promotion of swarming motility of wild type PAO1 | no apparent effect on PAO1 swarming | poor anti-biofilm activity | did not show anti-biofilm activities | did not inhibit the planktonic growth | complete abolition of bacterial growth on the soft-agar plate | inhibited bacterial (PAO1) growth on a soft agar | – | – | – | –
dodecyl-β-cyclodextrin [DβCDS (18)] | no significant effect on the swarming motility | no significant effect on the swarming motility | no apparent effect on PAO1 swarming | – | weak anti-biofilm activity; also recorded: did not show anti-biofilm activities | – | – | – | insignificant biofilm inhibition | increased the biofilm content | 29% | promoted biofilm formation instead of causing dispersion

— US11357786B2, “Synthetic disugar hydrocarbons as natural analogs to control microbial behaviors” (Syracuse University, priority 2014, dated 2022)
